Assay results taken from publication PMC10858940, “Repositioning baloxavir marboxil as VISTA agonist that ameliorates experimental asthma” (Cell Biology and Toxicology, 2024).
Read-outs that look alike come from different tables or passages of the source.

Legend:
[1] = target: T1, VISTA (V-type immunoglobulin domain–containing suppressor of T-cell activation) (Homo sapiens, UniProt Q9H7M9); test: SPR (Biacore T200, human VISTA immobilized on CM5 chip); assay type: binding
T1 construct: gene VSIR; human VISTA-ECD protein
T1 sequence (Q9H7M9 33-194): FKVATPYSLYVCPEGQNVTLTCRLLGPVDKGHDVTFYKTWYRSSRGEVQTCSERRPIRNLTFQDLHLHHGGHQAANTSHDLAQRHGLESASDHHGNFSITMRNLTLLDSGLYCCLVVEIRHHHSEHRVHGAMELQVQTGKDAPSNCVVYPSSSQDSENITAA

[2] = target: T2, VISTA (V-type immunoglobulin domain–containing suppressor of T-cell activation) (Homo sapiens, UniProt Q9H7M9); test: as above; assay type: binding
T2 construct: gene VSIR; human VISTA protein
T2 sequence (Q9H7M9 33-194 limits assumed): T1 sequence (Q9H7M9 33-194)

| Kd [1] | Kd [2] | SMILES |
| --- | --- | --- |
| 0.21 µM |  | O=C1c2c(O)c(=O)ccn2N([C@@H]2c3ccccc3SCc3c2ccc(F)c3F)[C@@H]2COCCN12 [BXA, baloxavir acid] |
|  | 1.07 µM | COC(=O)OCOc1c2n(ccc1=O)N([C@@H]1c3ccccc3SCc3c1ccc(F)c3F)[C@@H]1COCCN1C2=O [BXM, baloxavir marboxil] |
